# Test results from patent publication US20260191861A1, “INFLAMMASOME AND VEGF INHIBITION FOR RETINAL VASCULAR DISEASES” (University of Virginia Patent Foundation, priority 2022, published 2026).
# Test system: participants with center-involved diabetic macular edema (CI-DME)
# Experiment: Randomized clinical trial of oral lamivudine versus placebo in DME: ETDRS best-corrected visual-acuity letter score (VALS)
# Format: in vivo, human
# Description: A single center randomized clinical trial was conducted at a tertiary center in São Paulo, Brazil in accordance with the provisions of the Declaration of Helsinki and Good Clinical Practice guidelines. The study was approved by the local institutional review board and study participants provided written informed consent. This study was registered in the Brazilian Registry of Clinical Trials (ReBEC) under the number RBR-87b6r5s. Latinofarma (Brazil) provided the lamivudine and placebo at no cost and also provided funding for bevacizumab which was repackaged in single-used vials by Citopharma (Brazil).
# Participants were excluded if they had high-risk proliferative diabetic retinopathy, received any intravitreous injection or laser photocoagulation within the previous 6 months, positive serology for human immunodeficiency virus or hepatitis B virus, or an estimated glomerular rate filtration below 40 mL/min/1.73 m^2 determined with the use of the Cockcroft-Gault equation.
# Randomization was performed at the sealed envelope website (https://sealedenvelope.com), in permuted blocks and with stratification according to visual acuity in the study eye. One physician who was not involved with patient assessment was responsible for the randomization and vial delivery to the patients. The study participants, assessing physicians, and OCT technicians were unaware of the treatment group assignment at all visits.
# Placebo vials were provided by the same pharmaceutical company responsible for lamivudine production using the same vehicle. The vials were concealed and delivered to the study center. […] At the 4-week visit, participants were administered an intravitreous injection of bevacizumab (1.25 mg in an injection volume of 0.05 ml) in eyes with CI-DME if the best-corrected visual-acuity letter score (VALS) was less than 69 and the retinal central subfield thickness was 325 μm or more. Injection of bevacizumab was performed by the same physician following topical anesthesia, installation of a sterile lid speculum, and application of povidone-iodine drops. No antibiotic was administered after the procedure.
# Visual acuity assessment was performed by two certified assessing physicians. The same participant could be assessed by a different physician on each visit. The exam was performed using a back-illuminated 4-meter Early Treatment Diabetic Retinopathy Study (ETDRS) chart. Different ETDRS charts were used to refine the refraction and to assess the right and left eye at each visit. If fewer than 20 letters were correctly identified at 4 meters, testing was also performed at 1 meter adding+0.75 sphere. The refraction was performed without pupil dilation, in the same exam room with a standardized background illumination.
# The principal analysis compared lamivudine to placebo. Change in mean VALS from baseline was the primary outcome of interest. We sought to detect a difference of 6 letters in the VALS between groups. This effect size was chosen for power analyses because this change corresponds to a difference of more than 1 line on the ETDRS or Snellen eye charts, the minimal increase in visual acuity judged to be clinically meaningful. By estimating the standard deviation to be 6 letters, we calculated that 16 eyes in each group would provide the trial with 80% power (at a 5% two-sided alpha level) to detect this difference.
# To analyze the change in VALS from baseline, a mixed-effects model was employed. Random effects were included in the model to account for subject-specific variability. […] The model's estimates, confidence intervals (CI), and P values were reported for each predictor.
# The exams took place at the beginning of the treatment and after 4 weeks of using the medication. At the 4-week return, […] were administered an intravitreous injection of Avastin, one of the standard anti-VEGF treatments for DME. Four weeks after the injection (8 weeks from the start of the study) participants underwent another eye examination. […]
compound,measurement,setting,value
Nc1ccn([C@@H]2CS[C@H](CO)O2)c(=O)n1 [Lamivudine],"Mixed model: change in visual acuity from baseline, Treatment (Lamivudine vs. Placebo), estimate","Table 4, weeks 4 and 8",11.86
same,"Model-based contrast: change in visual acuity, Lamivudine - Placebo",change from baseline to week 4,11.86
same,"Model-based contrast: change in visual acuity, Lamivudine - Placebo",change from baseline to week 8,18.99
same,percentage of eyes with improvement in VALS of 15 or more,"week 4, oral lamivudine",38%
same,mean change in VALS from baseline,"week 4, oral lamivudine 150 mg twice daily, before intravitreous bevacizumab",9.8 letters
same,mean improvement in VALS from baseline,"week 8, oral lamivudine plus intravitreous bevacizumab 1.25 mg at week 4",16.9 letters
same,percentage of eyes with improvement in VALS of 15 or more,"week 8, oral lamivudine plus intravitreous bevacizumab at week 4",56%
